According to paper PMC10503797, “Allosteric modulator potentiates β2AR agonist–promoted bronchoprotection in asthma models” (The Journal of Clinical Investigation, 2023):
Where “and” joins values, the source holds several entries; their conditions need not be identical. Equal entries are not always repeated.

Key:
[1] = test system: lung slices obtained from ovalbumin-sensitized guinea pigs; test: Ovalbumin-induced airway constriction in lung slices from ovalbumin-sensitized guinea pigs; assay type: cell-based, guinea pig; conditions: Exp1-5
Text: All curve fits were generated using the software program GraphPad Prism. Data are represented as mean ± SEM of 4–5 guinea pigs (see Table 2 for statistical analyses).
Outbred, male, specified pathogen-free Dunkin Hartley guinea pigs (Charles River Laboratory) weighing 200 to 400 g were used. The animals were housed in pairs under a 12-hour light/dark cycle in a temperature- and humidity-controlled room with food and tap water ad libitum. For studies in the guinea pig model of allergic asthma, animals were actively IgE-sensitized to ovalbumin by injecting a suspension containing 100 μg/mL ovalbumin and 100 mg/mL Al(OH)3 in saline. Each animal was injected with 1.0 mL of suspension: 0.5 mL was injected i.p. and 0.5 mL was divided over 7 s.c. sites close to lymph nodes in the neck, paws, and lumbar regions ([24]). Animals were euthanized at least 4 weeks after sensitization.
(§1) Precision-cut lung slices were prepared as described previously ([61], [62]). A 3% solution of low melting-point agarose (Gerbu Biotechnik GmbH) in ultrapure water was prepared by heating it a microwave until fully dissolved. […] After filling, the lungs were covered with ice for 30 minutes to solidify the agarose for slicing. […] Lung slices were cut at a thickness of 500 μm and washed several times with slicing buffer to remove debris and washout the isoproterenol. Slices were incubated overnight in a 60 mm dish in sterile incubation buffer: MEM composed of lung slice buffer supplemented with 0.5 mM sodium pyruvate, 1 mM glutamine (Gibco), MEM-amino acids mixture (1:50), MEM-vitamins mixture (1:100; Gibco), and penicillin-streptomycin (1:100; Gibco), pH = 7.2, at 37°C in a CO2- and humidity-controlled atmosphere.
(§2) After washing the slices in medium, individual guinea pig lung slices were mechanically maintained with a Teflon ring with an inner diameter of 7 mm and covered with 1 mL of incubation buffer. […] Image acquisition software (NIS-Elements, Nikon) was used to quantify airway luminal area. Images of the airways were acquired every 2 seconds during the whole course of the experiment, starting 2 minutes before the addition of any agent to allow for baseline measurements of the airway caliber. For each methacholine or ovalbumin concentration, the maximal airway constriction was expressed as percentage of the initial (baseline) airway luminal area and plotted against that concentration.

guinea pig β2AR = guinea pig β2AR (Cavia porcellus, UniProt Q8K4Z4); test: 125I-CYP radioligand competition binding, guinea pig β2AR; conditions: DMSO, listed as FEN
Chain of guinea pig β2AR (Q8K4Z4 whole entry): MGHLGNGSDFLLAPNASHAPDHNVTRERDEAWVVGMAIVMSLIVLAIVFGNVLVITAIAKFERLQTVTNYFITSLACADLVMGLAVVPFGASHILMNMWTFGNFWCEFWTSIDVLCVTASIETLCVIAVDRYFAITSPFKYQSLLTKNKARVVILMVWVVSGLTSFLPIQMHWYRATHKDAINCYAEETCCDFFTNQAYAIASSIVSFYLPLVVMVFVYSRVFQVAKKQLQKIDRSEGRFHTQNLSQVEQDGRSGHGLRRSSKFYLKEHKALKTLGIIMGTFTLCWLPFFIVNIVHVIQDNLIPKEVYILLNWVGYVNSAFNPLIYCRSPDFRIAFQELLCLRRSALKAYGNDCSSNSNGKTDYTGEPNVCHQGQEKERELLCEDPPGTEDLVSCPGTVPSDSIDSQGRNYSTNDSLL

guinea pig lung slices = test: Methacholine-induced airway constriction in guinea pig lung slices; assay type: cell-based
Protocol: All curve fits were generated using the software program GraphPad Prism. Data are represented as mean ± SEM obtained from 6 guinea pigs.
as §1, §2

In the case of `CC(Cc1ccc(O)cc1)NCC(O)c1cc(O)cc(O)c1` (centres unmarked) [Fenoterol, fenoterol], the “OVA-induced airway constriction response (Figure 6)” value ([1]; 0.1 µM Fenoterol, [OVA] 0.001 ng/ml) is reported as 100.0 and 98.0 and 100.9, the “OVA-induced airway constriction response (Figure 6)” value ([1]; 0.1 µM Fenoterol, [OVA] 0.01 ng/ml) is reported as 100.0 and 105.5 and 96.2 and 100.8 and the “OVA-induced airway constriction response (Figure 6)” value ([1]; 0.1 µM Fenoterol, [OVA] 0.1 ng/ml) is reported as 100 and 99.0. The “OVA-induced airway constriction response (Figure 6)” value ([1]; 0.1 µM Fenoterol, [OVA] 1 ng/ml) was 100.0 and 109.4 and 99.5 and 95.4, the “OVA-induced airway constriction response (Figure 6)” value ([1]; 0.1 µM Fenoterol, [OVA] 10 ng/ml) was 109.1 and 98.9 and 69.5 and the “OVA-induced airway constriction response (Figure 6)” value ([1]; 0.1 µM Fenoterol, [OVA] 100000 ng/ml) was 0.0. For the same compound, the “OVA-induced airway constriction response (Figure 6)” value ([1]; 0.1 µM Fenoterol, [OVA] 1000000 ng/ml) was 0.0, the “OVA-induced airway constriction response (Figure 6)” value ([1]; 1 µM Fenoterol, [OVA] 0.001 ng/ml) was 103.2 and 100 and 98.0 and the “OVA-induced airway constriction response (Figure 6)” value ([1]; 1 µM Fenoterol, [OVA] 0.01 ng/ml) was 103.0 and 100.0 and 95.8. The “OVA-induced airway constriction response (Figure 6)” value ([1]; 1 µM Fenoterol, [OVA] 0.1 ng/ml) was 97.3 and 96.9 and 98.7 and 100, the “OVA-induced airway constriction response (Figure 6)” value ([1]; 1 µM Fenoterol, [OVA] 1 ng/ml) was 103.2 and 98.4 and 95.2 and 100.1 and 99.5 and the “OVA-induced airway constriction response (Figure 6)” value ([1]; 1 µM Fenoterol, [OVA] 10 ng/ml) was 101.0 and 98.4 and 92.9 and 100.7 and 99.7. The “OVA-induced airway constriction response (Figure 6)” value ([1]; 1 µM Fenoterol, [OVA] 100 ng/ml) was 98.8 and 99.1 and 98.3 and 105.5 and 98.7, the “OVA-induced airway constriction response (Figure 6)” value ([1]; 1 µM Fenoterol, [OVA] 1000 ng/ml) was 95.3 and 96.8 and 97.2 and 98.0 and the “OVA-induced airway constriction response (Figure 6)” value ([1]; 1 µM Fenoterol, [OVA] 10000 ng/ml) was 91.4 and 95.6 and 97.2 and 105.0 and 93.6. The “OVA-induced airway constriction response (Figure 6)” value ([1]; 1 µM Fenoterol, [OVA] 100000 ng/ml) was 91.8 and 92.1 and 100.5 and 99.1 and 87.0, the “OVA-induced airway constriction response (Figure 6)” value ([1]; 1 µM Fenoterol, [OVA] 1000000 ng/ml) was 92.1 and 93.3 and 97.5 and 83.9 and the “125I-CYP binding, FEN competition curve (Figure 4D)” value (“125I-CYP binding” below) (guinea pig β2AR; Log [FEN] (M) -4.49485) was 3.006 and 3.081 and 4.379 and 2.482. The “125I-CYP binding” value (guinea pig β2AR; Log [FEN] (M) -5.09691) was 10.5632 and 11.6008 and 14.5744 and 11.1845, the “125I-CYP binding” value (guinea pig β2AR; Log [FEN] (M) -5.69897) was 27.5943 and 31.6003 and 36.8549 and 31.4566 and the “125I-CYP binding” value (guinea pig β2AR; Log [FEN] (M) -6.30103) was 58.2352 and 64.6742 and 67.2527 and 62.2696. For the same compound, the “125I-CYP binding” value (guinea pig β2AR; Log [FEN] (M) -6.90309) was 83.5341 and 84.3533 and 88.9652 and 87.8637, the “125I-CYP binding” value (guinea pig β2AR; Log [FEN] (M) -7.50515) was 93.701 and 97.0547 and 97.6505 and 97.0492 and the “125I-CYP binding” value (guinea pig β2AR; Log [FEN] (M) -8.10721) was 100.713 and 99.5295 and 100.092. For the same compound, the “125I-CYP binding” value (guinea pig β2AR; Log [FEN] (M) -8.70927) was 98.7203 and 100.799 and 100.482, the “125I-CYP binding” value (guinea pig β2AR; Log [FEN] (M) -9.31133) was 101.392 and 100.992 and 100.128 and the “125I-CYP binding” value (guinea pig β2AR; Log [FEN] (M) -9.91339) was 99.9817 and 101.061 and 100.058 and 101.342. For the same compound, the “airway area in MCh concentration-response (Figure 5A/5C)” value (from here on “airway area”) (guinea pig lung slices; 1 µM Fenoterol, -Log [MCh] 2.5) was 0.0, the “airway area” value (guinea pig lung slices; 1 µM Fenoterol, -Log [MCh] 3) was 0.0 and the “airway area” value (guinea pig lung slices; 1 µM Fenoterol, -Log [MCh] 3.5) was 0.0. The “airway area” value (guinea pig lung slices; 1 µM Fenoterol, -Log [MCh] 4) was 0.0, the “airway area” value (guinea pig lung slices; 1 µM Fenoterol, -Log [MCh] 4.5) was 0.0 and the “airway area” value (guinea pig lung slices; 1 µM Fenoterol, -Log [MCh] 7) was 100.3 and 103.0 and 66.3 and 92.9 and 96.6. The “airway area” value (guinea pig lung slices; 1 µM Fenoterol, -Log [MCh] 7.5) was 101.4 and 100.4 and 106.4 and 96.3, the “airway area” value (guinea pig lung slices; 1 µM Fenoterol, -Log [MCh] 8) was 99.1 and 105.8 and 109.5 and 112.9 and the “airway area” value (guinea pig lung slices; 10 µM Fenoterol, -Log [MCh] 6.5) was 59.0 and 89.4 and 82.6 and 83.1 and 91.0 and 74.6. For the same compound, the “MCh-induced airway constriction response (Figure 5D)” value (guinea pig lung slices; 10 µM Fenoterol, -Log [MCh] 6.5, Exp1-6) was 59.0 and 89.4 and 82.6 and 83.1 and 91.0 and 74.6 and the “airway area” value (guinea pig lung slices; 10 µM Fenoterol, -Log [MCh] 7) was 77.1 and 109.6 and 109.2 and 101.3 and 91.9.
